# In PMC4685510, “A Cell Biologist’s Field Guide to Aurora Kinase Inhibitors” (Frontiers in Oncology, 2015):
# Assays:
# Assay in all cases: biochemical
# Type in all cases: biochemical
# [1] = molecular target: 363 human kinases (including Aurora A/B/C) (Homo sapiens, UniProt P32298); conditions: GRK4; for remaining activity at 0.1 µM: 100 nM; for remaining activity at 0.1 µM / remaining activity at 0.5 µM: read-out: % Enzyme Activity (relative to DMSO controls)
# Excerpt: (§1) However, the Aurora A/B selectivity ratios derived from our in vitro and in vivo data can be compared to prioritize inhibitors.
# [2] = molecular target: 363 human kinases (including Aurora A/B/C) (Homo sapiens, UniProt P35968); conditions: KDR/VEGFR2; for remaining activity at 0.1 µM: 100 nM; for remaining activity at 0.1 µM / remaining activity at 0.5 µM: read-out: % Enzyme Activity (relative to DMSO controls)
# Excerpt: as §1
# [3] = molecular target: 363 human kinases (including Aurora A/B/C) (Homo sapiens, UniProt P48729); conditions: CK1a1, [ATP] 20 µM; for remaining activity at 0.1 µM: 100 nM; for remaining activity at 0.1 µM / remaining activity at 0.5 µM: read-out: % Enzyme Activity (relative to DMSO controls)
# Excerpt: as §1
# [4] = molecular target: T1, 363 human kinases (including Aurora A/B/C) (Homo sapiens, UniProt P54753); conditions: EPHB3, [ATP] 50 µM; for remaining activity at 0.1 µM: 100 nM; for remaining activity at 0.1 µM / remaining activity at 0.5 µM: read-out: % Enzyme Activity (relative to DMSO controls)
# T1 sequence (P54753 34-998): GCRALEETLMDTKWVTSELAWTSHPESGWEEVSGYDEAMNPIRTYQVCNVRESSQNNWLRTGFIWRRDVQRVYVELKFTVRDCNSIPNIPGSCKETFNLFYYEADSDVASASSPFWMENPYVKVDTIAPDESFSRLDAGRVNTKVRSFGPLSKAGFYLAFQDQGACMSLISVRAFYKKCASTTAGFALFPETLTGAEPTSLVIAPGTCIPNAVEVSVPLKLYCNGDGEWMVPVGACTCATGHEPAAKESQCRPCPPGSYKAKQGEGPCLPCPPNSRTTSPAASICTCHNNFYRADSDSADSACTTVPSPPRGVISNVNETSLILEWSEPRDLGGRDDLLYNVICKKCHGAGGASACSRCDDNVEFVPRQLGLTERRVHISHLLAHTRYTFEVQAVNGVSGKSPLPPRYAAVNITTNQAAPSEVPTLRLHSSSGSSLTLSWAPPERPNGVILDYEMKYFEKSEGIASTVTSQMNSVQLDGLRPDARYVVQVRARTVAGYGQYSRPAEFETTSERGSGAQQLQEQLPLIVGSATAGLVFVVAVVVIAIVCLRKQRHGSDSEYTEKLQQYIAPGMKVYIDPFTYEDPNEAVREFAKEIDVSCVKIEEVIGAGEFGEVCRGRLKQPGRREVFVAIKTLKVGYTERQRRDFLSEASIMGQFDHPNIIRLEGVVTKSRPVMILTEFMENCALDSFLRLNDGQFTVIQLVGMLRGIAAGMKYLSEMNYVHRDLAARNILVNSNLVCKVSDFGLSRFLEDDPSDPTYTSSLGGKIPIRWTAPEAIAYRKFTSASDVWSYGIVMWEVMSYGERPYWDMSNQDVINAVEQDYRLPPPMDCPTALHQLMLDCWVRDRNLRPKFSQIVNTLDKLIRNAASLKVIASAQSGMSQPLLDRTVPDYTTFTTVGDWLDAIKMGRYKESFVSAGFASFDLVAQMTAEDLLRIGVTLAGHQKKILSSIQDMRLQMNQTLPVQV
# Excerpt: as §1
# [5] = molecular target: T2, 363 human kinases (including Aurora A/B/C) (Homo sapiens, UniProt P54760); conditions: EPHB4, [ATP] 20 µM; for remaining activity at 0.1 µM: 100 nM; for remaining activity at 0.1 µM / remaining activity at 0.5 µM: read-out: % Enzyme Activity (relative to DMSO controls)
# T2 sequence (P54760 16-987): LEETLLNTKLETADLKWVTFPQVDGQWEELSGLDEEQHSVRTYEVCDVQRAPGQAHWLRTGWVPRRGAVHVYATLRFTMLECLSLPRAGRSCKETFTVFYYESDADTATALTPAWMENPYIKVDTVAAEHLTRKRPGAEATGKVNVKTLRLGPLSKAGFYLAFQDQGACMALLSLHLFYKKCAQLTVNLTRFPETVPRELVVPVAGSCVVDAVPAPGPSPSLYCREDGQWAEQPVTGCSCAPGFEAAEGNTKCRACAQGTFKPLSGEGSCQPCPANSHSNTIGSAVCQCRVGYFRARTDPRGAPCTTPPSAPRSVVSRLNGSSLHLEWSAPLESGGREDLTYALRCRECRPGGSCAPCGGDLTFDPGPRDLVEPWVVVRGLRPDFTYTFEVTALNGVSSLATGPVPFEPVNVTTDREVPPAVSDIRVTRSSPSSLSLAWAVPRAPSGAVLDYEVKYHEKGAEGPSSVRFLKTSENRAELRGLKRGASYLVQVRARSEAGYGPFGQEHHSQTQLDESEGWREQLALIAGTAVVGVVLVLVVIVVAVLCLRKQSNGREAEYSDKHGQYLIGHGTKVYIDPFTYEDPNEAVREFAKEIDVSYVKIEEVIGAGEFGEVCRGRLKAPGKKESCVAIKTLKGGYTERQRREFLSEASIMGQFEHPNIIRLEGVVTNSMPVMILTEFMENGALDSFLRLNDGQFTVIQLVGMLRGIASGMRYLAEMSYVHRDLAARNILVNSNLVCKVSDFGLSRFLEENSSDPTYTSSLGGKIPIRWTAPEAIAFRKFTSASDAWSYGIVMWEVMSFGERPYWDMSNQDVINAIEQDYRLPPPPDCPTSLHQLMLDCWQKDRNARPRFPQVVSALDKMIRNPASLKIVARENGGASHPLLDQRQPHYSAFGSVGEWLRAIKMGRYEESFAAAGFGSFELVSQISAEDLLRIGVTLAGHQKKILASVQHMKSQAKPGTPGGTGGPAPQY
# Excerpt: as §1
# [6] = molecular target: 363 human kinases (including Aurora A/B/C) (Homo sapiens, UniProt Q5TCY1); conditions: TTBK1; for remaining activity at 0.1 µM: 100 nM; for remaining activity at 0.1 µM / remaining activity at 0.5 µM: read-out: % Enzyme Activity (relative to DMSO controls)
# Excerpt: as §1
# [7] = molecular target: 363 human kinases (including Aurora A/B/C) (Homo sapiens, UniProt Q9UEW8); conditions: STK39/STLK3; for remaining activity at 0.1 µM: 100 nM; for remaining activity at 0.1 µM / remaining activity at 0.5 µM: read-out: % Enzyme Activity (relative to DMSO controls)
# Excerpt: as §1
# Sequence of 363 human kinases (including Aurora A/B/C) (Homo sapiens, UniProt P48729) (P48729 whole entry): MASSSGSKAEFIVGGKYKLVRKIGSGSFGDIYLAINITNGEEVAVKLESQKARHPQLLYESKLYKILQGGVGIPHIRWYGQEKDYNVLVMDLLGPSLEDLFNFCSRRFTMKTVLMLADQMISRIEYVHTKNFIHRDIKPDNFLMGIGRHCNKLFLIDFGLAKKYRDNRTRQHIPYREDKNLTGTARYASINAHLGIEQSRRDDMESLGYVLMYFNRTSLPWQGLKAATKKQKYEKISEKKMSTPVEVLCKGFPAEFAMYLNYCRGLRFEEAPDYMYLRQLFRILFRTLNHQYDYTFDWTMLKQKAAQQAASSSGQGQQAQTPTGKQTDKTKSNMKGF
# Sequence of 363 human kinases (including Aurora A/B/C) (Homo sapiens, UniProt P32298) (P32298 whole entry): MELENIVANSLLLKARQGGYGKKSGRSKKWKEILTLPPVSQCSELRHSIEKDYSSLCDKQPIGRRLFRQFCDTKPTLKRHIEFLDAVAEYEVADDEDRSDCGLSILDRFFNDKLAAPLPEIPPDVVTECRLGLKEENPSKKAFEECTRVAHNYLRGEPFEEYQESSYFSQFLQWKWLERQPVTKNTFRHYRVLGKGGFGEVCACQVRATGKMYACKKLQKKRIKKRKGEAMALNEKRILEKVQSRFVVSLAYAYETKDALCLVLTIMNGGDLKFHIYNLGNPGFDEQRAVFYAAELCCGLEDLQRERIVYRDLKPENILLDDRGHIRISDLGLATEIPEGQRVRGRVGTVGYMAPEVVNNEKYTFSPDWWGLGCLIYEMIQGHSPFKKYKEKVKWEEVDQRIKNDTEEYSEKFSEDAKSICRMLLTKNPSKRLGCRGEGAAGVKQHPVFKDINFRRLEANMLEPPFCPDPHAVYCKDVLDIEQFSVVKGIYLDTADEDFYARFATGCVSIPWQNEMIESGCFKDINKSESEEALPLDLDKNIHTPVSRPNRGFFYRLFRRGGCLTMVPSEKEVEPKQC
# Sequence of 363 human kinases (including Aurora A/B/C) (Homo sapiens, UniProt Q5TCY1) (Q5TCY1 whole entry): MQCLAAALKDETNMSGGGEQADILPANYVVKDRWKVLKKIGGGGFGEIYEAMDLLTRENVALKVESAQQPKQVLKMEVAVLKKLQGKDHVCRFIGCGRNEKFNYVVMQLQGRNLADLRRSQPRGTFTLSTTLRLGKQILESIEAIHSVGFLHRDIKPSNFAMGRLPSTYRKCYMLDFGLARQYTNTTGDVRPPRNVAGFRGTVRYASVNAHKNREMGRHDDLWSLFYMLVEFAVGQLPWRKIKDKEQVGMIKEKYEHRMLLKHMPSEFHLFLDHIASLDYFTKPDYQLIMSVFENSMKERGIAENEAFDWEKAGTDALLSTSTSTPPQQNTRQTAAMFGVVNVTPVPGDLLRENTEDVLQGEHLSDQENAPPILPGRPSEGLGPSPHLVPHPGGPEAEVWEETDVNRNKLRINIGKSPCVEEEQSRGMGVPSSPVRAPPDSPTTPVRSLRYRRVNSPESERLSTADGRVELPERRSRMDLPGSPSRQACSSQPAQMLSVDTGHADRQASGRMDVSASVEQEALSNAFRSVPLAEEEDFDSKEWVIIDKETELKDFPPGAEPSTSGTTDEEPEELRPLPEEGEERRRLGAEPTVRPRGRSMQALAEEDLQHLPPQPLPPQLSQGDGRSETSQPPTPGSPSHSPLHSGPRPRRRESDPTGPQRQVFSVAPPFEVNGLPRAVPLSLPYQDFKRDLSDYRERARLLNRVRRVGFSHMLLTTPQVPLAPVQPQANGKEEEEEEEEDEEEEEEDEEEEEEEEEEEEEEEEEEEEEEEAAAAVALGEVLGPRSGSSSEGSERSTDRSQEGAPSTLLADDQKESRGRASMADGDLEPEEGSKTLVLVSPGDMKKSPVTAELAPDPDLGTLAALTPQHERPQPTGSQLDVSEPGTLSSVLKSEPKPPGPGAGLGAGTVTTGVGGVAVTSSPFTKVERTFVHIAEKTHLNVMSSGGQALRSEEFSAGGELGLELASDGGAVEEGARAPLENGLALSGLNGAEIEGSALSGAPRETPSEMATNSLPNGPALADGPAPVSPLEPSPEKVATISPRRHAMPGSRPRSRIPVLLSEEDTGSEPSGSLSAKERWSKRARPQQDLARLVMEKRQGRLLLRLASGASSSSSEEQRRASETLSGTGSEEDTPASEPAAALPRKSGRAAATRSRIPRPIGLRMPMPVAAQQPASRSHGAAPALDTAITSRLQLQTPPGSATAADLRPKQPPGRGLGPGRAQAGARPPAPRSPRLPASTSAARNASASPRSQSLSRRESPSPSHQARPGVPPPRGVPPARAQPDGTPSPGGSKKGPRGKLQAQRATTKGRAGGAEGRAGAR
# Sequence of 363 human kinases (including Aurora A/B/C) (Homo sapiens, UniProt P35968) (P35968 20-1356): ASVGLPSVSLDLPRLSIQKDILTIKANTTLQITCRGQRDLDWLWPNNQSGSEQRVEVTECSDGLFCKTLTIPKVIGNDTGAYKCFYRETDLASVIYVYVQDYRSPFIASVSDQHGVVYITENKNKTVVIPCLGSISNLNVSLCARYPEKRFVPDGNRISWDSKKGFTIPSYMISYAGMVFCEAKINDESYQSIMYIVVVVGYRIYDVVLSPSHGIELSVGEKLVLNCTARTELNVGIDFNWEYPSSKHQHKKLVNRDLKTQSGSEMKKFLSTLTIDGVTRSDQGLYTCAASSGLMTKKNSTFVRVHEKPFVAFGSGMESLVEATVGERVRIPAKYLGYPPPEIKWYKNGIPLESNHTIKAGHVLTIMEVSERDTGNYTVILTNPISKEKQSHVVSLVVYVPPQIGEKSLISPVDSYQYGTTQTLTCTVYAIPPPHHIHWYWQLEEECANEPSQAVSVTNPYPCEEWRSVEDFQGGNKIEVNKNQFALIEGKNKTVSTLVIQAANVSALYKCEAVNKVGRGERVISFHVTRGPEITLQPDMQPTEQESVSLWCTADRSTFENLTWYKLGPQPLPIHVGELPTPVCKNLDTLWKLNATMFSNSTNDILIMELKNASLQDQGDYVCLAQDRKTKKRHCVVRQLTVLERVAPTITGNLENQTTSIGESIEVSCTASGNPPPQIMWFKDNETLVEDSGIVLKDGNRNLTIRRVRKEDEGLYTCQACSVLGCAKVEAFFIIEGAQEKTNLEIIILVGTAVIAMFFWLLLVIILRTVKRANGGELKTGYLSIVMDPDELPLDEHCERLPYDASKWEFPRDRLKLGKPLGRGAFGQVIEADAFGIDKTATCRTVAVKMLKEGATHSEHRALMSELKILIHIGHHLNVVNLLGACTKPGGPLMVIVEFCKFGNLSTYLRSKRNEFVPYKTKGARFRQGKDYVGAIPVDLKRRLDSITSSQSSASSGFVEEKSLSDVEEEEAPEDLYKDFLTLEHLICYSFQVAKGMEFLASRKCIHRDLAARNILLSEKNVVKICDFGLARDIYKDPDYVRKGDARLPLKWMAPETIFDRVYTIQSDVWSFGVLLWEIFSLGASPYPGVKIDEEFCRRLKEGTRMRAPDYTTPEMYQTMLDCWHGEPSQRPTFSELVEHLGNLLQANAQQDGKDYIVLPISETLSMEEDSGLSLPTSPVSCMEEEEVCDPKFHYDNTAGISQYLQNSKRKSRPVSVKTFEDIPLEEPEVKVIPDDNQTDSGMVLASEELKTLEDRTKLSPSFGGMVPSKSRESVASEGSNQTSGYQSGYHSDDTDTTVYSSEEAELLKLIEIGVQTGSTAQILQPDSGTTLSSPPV
SMILES,remaining activity at 0.1 µM [1] [%],remaining activity at 0.5 µM ([1]; 500 nM) [%],remaining activity at 0.1 µM [2] [%],remaining activity at 0.5 µM ([2]; 500 nM) [%],remaining activity at 0.1 µM [3] [%],remaining activity at 0.5 µM ([3]; 500 nM) [%],remaining activity at 0.1 µM [4] [%],remaining activity at 0.5 µM ([4]; 500 nM) [%],remaining activity at 0.1 µM [5] [%],remaining activity at 0.5 µM ([5]; 500 nM) [%],remaining activity at 0.1 µM [6] [%],remaining activity at 0.5 µM ([6]; 500 nM) [%],remaining activity at 0.1 µM [7] [%],remaining activity at 0.5 µM ([7]; 500 nM) [%],also measured
O=C(O)[C@]1(Cc2cccc(Nc3nccs3)n2)CC[C@@H](Oc2cccc(Cl)c2F)CC1 [MK-5108],96.7,92.9,36.8,13.1,89,101,102,89.5,29.5,5.58,101,116,105,97.4,
O=C(c1cccc(Cl)c1F)N1CCN(Cc2cccc(Nc3nccs3)n2)CC1 [MK-8745],,94.8,,96.7,,99.8,,93,,47.7,,111,,99.8,% Enzyme Activity (relative to DMSO controls) ([1]; 500 nM): 94.47%; % Enzyme Activity (relative to DMSO controls) ([2]; 500 nM): 96.11%; % Enzyme Activity (relative to DMSO controls) ([3]; 500 nM): 99.17%; % Enzyme Activity (relative to DMSO controls) ([4]; 500 nM): 92.59%; % Enzyme Activity (relative to DMSO controls) ([5]; 500 nM): 47.01%; % Enzyme Activity (relative to DMSO controls) ([6]; 500 nM): 108.75%; % Enzyme Activity (relative to DMSO controls) ([7]; 500 nM): 98.73%
CCn1cc(-c2ccnc3[nH]c(-c4cccc(CN(C)C)c4)cc23)c(-c2ccc(NC(=O)N(C)C)cc2)n1 [GSK1070916],95.2,,87.5,,103,,94.5,,87.9,,115,,100,,
